Source: ChEMBL document CHEMBL1201862, “PubChem BioAssay data set” (2004)
Activity calls are given as the source filed them.

Columns and labels:
CAAX prenyl protease 1 = CAAX prenyl protease 1 (Saccharomyces cerevisiae S288c, UniProt P47154); test: yeast CAAX protease Ste24 inhibition – biochemical, S. cerevisiae, plate reader, cherry-pick, dose response (AID 488815)
Trypsin = Trypsin (Sus scrofa, UniProt P00761); test: trypsin protease activity blockade – biochemical, quenched peptide fluorescence, cherry-pick, selectivity assay for Rce1 protease inhibitor project, dose response (AID 488789)
CAAX prenyl protease 2 = CAAX prenyl protease 2 (Homo sapiens, UniProt Q9Y256); test: inhibition of Ras-converting CAAX protease Rce1 – biochemical, yeast membranes, quenched-peptide fluorescence, cherry-pick, dose response (AID 588849)
[1] = biological target: Dual specificity protein kinase CLK1 (Homo sapiens, UniProt P49759); test: inhibition of human CLK1 activity – biochemical, cherry-picked samples, selectivity assay for Dyrk1A inhibitor project, dose response (AID 588811)
[2] = biological target: T1, Sentrin-specific protease 7 (Homo sapiens, UniProt Q9BQF6); test: inhibition of human SENP7 cleavage activity – biochemical, luminescence, set 2, SAR follow-up (AID 588600); type: functional
T1 sequence (Q9BQF6 whole entry): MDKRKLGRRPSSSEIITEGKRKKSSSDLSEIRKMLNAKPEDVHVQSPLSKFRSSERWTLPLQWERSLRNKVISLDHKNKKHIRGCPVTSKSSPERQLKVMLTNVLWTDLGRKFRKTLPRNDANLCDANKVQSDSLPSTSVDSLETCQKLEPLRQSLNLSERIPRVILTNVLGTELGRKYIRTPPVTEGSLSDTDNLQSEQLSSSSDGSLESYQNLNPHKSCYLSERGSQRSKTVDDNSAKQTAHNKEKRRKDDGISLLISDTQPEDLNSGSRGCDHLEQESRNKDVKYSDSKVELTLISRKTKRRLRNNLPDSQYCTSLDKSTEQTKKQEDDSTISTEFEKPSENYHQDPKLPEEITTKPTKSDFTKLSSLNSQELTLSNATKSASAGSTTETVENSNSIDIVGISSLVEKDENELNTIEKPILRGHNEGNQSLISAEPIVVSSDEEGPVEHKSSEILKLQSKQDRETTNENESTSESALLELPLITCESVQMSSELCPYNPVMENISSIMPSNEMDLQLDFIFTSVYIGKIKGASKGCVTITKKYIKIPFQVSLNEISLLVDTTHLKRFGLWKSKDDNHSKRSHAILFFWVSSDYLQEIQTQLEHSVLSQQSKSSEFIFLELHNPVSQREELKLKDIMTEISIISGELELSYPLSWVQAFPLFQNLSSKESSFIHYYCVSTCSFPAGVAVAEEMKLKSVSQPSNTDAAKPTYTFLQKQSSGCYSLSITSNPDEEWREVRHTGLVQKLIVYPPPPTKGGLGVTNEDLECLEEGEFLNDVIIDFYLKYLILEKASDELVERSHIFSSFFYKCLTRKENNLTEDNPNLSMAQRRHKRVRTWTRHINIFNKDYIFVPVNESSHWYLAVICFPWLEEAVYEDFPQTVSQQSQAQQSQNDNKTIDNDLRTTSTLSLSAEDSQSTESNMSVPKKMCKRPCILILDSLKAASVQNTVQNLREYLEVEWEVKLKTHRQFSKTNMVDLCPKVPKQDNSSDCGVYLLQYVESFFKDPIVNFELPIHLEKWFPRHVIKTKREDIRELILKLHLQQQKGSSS

[3] = biological target: T2, Sentrin-specific protease 8 (Homo sapiens, UniProt Q96LD8); test: inhibition of sentrin protease 8 – biochemical, luminescence, set 2, SAR follow-up (AID 588601); type: functional
T2 sequence (Q96LD8 whole entry): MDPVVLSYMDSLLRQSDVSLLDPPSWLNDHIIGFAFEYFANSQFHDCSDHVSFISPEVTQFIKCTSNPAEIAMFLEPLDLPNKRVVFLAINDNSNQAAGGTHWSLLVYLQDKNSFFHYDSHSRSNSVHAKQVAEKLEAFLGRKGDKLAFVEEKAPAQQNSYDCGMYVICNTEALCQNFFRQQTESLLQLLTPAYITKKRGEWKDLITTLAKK

Caspase-3 = biological target: T3, Caspase-3 (Homo sapiens, UniProt P42574); test: inhibition of recombinant caspase-3 activity – biochemical, luminescence, set 2, selectivity assay for SENP protease inhibitor project, SAR follow-up (AID 588599); type: functional
T3 sequence (P42574 whole entry): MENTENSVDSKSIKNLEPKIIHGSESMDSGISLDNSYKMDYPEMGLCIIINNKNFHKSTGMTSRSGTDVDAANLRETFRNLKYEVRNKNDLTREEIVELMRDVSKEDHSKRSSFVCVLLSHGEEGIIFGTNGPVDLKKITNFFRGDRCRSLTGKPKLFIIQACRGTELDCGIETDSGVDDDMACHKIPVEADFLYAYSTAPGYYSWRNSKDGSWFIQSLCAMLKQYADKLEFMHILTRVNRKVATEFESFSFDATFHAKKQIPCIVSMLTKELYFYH

[4] = biological target: T4, Sentrin-specific protease 6 (Homo sapiens, UniProt Q9GZR1); test: inhibition of human SENP6 catalytic domain – biochemical, luminescence, set 2, SAR follow-up (AID 588598); type: functional
T4 sequence (Q9GZR1 whole entry): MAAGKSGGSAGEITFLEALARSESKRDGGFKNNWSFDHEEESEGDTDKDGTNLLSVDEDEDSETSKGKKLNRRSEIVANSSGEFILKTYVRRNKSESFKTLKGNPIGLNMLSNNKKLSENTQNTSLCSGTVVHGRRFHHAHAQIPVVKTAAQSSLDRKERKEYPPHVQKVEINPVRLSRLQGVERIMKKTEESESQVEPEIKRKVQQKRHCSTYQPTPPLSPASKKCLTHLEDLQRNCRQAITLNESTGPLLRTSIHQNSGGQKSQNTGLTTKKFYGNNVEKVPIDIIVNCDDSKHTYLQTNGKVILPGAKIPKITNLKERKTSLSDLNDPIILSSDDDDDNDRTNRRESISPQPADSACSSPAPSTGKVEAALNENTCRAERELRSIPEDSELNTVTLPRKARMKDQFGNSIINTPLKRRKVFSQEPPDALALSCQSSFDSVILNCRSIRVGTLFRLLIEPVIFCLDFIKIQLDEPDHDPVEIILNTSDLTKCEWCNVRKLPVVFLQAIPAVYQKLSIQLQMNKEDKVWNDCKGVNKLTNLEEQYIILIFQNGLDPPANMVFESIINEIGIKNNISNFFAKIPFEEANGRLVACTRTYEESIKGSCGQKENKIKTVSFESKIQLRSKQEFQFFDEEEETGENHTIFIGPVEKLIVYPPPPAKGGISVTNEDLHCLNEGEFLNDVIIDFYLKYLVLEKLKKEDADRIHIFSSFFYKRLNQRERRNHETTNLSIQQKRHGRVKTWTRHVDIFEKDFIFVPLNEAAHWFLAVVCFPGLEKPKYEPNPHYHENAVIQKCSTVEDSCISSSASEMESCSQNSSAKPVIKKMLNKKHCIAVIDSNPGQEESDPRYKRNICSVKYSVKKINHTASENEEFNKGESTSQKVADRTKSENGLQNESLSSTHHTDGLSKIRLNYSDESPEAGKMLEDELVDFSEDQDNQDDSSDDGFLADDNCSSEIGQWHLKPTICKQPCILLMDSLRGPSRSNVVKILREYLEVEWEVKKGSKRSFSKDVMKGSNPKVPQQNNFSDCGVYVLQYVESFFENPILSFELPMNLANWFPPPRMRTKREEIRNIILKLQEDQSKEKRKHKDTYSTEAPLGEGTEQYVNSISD

[5] = biological target: Glycogen synthase kinase-3 alpha (Homo sapiens, UniProt P49840); test: Inhibition of Human GSK-3 alpha Activity Measured in Biochemical System Using Microfluidics - 2063-06_Inhibitor_Dose_DryPowder_Activity. [Related pubchem assays (depositor defined):AID2709]
[6] = biological target: Glycogen synthase kinase-3 beta (Homo sapiens, UniProt P49841); test: Inhibition of Human GSK-3 beta Activity Measured in Biochemical System Using Microfluidics - 2063-05_Inhibitor_Dose_DryPowder_Activity. [Related pubchem assays (depositor defined):AID2709]
[7] = biological target: DNA dC->dU-editing enzyme APOBEC-3A (Homo sapiens, UniProt P31941); test: A3A deaminase inhibition for selectivity – biochemical, dose response (AID 504722); type: functional
[8] = biological target: T5, Apoptotic protease-activating factor 1 (Homo sapiens, UniProt O14727); test: activation of Apaf-1 mediated apoptosis – fluorescent, uHTS hits, dose response (AID 588554); type: functional
T5 sequence (O14727 whole entry): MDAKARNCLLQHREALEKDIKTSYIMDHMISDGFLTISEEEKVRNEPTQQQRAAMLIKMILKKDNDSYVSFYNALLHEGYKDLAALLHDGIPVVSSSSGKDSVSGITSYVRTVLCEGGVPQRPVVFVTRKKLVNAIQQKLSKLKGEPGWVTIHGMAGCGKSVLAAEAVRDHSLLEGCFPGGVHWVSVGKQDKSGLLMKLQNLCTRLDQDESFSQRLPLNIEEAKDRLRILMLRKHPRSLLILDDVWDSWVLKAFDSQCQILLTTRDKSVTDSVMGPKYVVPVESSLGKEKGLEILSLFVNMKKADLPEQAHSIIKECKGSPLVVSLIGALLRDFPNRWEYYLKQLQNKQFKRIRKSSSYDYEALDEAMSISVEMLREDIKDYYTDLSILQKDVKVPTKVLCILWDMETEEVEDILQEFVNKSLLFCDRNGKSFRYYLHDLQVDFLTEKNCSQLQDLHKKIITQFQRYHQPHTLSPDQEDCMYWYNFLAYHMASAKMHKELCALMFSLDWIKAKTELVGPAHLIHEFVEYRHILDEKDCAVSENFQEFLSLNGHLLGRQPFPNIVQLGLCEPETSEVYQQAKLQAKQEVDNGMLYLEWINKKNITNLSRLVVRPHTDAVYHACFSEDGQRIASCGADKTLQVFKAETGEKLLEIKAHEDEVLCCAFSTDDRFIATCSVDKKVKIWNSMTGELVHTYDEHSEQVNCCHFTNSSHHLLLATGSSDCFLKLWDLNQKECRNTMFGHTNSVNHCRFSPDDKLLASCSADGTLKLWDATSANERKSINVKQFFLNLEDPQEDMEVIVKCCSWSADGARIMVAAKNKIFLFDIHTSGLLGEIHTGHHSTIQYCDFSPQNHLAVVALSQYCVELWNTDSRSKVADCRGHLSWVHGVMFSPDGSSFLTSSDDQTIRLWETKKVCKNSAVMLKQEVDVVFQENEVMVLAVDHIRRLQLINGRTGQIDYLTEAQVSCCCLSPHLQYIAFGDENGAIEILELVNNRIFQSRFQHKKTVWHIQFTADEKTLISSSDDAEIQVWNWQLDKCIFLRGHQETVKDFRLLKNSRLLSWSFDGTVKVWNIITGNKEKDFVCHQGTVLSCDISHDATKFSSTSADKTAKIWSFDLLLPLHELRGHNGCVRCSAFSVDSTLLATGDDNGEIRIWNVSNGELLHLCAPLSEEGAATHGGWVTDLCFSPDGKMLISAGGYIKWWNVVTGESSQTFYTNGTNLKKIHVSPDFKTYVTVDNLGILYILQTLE

[9] = biological target: T6, Carboxy-terminal domain RNA polymerase II polypeptide A small phosphatase 1 (Homo sapiens, UniProt Q9GZU7); test: CTDSP1 inhibitors, concentration-response, biochemical, absorbance readout, ultra-high-throughput screen actives (AID 540297); type: functional
T6 sequence (Q9GZU7 whole entry): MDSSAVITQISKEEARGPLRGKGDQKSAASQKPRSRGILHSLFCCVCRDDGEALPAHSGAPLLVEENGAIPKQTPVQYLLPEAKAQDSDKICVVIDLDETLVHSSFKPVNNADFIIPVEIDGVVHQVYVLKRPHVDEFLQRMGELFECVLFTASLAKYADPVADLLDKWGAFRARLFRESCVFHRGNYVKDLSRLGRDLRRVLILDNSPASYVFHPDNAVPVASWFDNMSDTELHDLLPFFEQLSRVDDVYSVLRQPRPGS

[10] = biological target: DNA dC->dU-editing enzyme APOBEC-3G (Homo sapiens, UniProt Q9HC16); test: Dose Response confirmation of small molecule APOBEC3G DNA Deaminase Inhibitors via a fluorescence-based single-stranded DNA deaminase assay. [Related pubchem assays (depositor defined):AID493012, AID493028]; type: functional
[11] = biological target: Beta-adrenergic receptor kinase 1 (Homo sapiens, UniProt P25098); test: aptamer displacement from bead-bound GRK2 – biochemical, cherry pick 1, bead flow cytometry, dose response (AID 504500)
Phospholipase D1 = Phospholipase D1 (Homo sapiens, UniProt Q13393); test: cellular phospholipase D1 inhibition IC50 – cell-based, dose response (AID 602151); type: functional;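 note: cellular PLD1 assay in Calu-1 cells stimulated with PMA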
Phospholipase D2 = Phospholipase D2 (Homo sapiens, UniProt O14939); test: cellular phospholipase D2 inhibition IC50 – cell-based, dose response (AID 602147); type: functional;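 note: cellular assay in HEK293 cells overexpressing GFP-tagged PLD2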
HeLa = test: ATP-based viability loss in HeLa cells – cell-based, CellTiter-Glo luminescence, cherry-pick samples, cytotoxicity control for MITF activator project, dose response (AID 540259); type: functional; settings: Homo sapiens

Sequence of CAAX prenyl protease 1 (P47154 whole entry): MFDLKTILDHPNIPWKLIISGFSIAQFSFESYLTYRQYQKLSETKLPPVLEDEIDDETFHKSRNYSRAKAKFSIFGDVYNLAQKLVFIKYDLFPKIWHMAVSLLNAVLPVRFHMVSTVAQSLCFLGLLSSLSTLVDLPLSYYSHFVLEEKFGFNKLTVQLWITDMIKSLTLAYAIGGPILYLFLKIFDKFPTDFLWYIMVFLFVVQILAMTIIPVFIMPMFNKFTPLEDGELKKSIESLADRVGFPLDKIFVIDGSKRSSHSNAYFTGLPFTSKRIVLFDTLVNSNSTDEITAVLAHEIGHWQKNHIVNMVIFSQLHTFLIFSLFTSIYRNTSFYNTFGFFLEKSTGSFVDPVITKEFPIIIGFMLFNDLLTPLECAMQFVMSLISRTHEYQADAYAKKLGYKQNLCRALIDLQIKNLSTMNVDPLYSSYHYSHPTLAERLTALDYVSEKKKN
Sequence of DNA dC->dU-editing enzyme APOBEC-3G (Q9HC16 whole entry): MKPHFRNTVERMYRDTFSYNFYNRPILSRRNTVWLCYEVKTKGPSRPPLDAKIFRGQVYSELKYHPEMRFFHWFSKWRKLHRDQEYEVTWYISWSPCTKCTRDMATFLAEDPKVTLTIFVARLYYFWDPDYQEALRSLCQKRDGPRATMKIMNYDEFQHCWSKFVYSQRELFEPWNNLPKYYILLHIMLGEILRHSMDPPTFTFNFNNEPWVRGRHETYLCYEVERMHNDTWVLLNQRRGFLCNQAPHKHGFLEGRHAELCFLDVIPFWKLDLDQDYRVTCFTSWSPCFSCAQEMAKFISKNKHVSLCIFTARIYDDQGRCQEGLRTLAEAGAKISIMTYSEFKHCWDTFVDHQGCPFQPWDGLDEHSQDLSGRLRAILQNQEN
Sequence of Trypsin (P00761 whole entry): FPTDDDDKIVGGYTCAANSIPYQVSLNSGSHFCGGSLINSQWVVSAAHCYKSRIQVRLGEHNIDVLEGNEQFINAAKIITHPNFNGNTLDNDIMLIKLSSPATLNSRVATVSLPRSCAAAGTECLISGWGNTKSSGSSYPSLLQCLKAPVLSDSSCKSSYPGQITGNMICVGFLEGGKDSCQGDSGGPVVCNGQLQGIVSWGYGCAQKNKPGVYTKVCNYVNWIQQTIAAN
Sequence of Glycogen synthase kinase-3 alpha (P49840 whole entry): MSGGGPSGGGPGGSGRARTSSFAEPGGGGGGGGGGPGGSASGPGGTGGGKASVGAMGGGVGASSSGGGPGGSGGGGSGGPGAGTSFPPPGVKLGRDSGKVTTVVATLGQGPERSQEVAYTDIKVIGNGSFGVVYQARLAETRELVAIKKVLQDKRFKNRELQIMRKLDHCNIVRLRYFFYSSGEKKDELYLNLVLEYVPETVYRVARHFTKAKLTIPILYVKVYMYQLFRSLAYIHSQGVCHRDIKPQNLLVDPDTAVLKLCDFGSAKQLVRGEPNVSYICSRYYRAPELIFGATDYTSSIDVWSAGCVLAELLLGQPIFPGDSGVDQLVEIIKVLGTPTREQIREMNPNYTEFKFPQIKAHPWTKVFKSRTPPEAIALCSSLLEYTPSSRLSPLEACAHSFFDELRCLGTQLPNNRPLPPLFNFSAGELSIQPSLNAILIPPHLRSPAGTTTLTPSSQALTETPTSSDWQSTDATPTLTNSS
Sequence of Phospholipase D2 (O14939 whole entry): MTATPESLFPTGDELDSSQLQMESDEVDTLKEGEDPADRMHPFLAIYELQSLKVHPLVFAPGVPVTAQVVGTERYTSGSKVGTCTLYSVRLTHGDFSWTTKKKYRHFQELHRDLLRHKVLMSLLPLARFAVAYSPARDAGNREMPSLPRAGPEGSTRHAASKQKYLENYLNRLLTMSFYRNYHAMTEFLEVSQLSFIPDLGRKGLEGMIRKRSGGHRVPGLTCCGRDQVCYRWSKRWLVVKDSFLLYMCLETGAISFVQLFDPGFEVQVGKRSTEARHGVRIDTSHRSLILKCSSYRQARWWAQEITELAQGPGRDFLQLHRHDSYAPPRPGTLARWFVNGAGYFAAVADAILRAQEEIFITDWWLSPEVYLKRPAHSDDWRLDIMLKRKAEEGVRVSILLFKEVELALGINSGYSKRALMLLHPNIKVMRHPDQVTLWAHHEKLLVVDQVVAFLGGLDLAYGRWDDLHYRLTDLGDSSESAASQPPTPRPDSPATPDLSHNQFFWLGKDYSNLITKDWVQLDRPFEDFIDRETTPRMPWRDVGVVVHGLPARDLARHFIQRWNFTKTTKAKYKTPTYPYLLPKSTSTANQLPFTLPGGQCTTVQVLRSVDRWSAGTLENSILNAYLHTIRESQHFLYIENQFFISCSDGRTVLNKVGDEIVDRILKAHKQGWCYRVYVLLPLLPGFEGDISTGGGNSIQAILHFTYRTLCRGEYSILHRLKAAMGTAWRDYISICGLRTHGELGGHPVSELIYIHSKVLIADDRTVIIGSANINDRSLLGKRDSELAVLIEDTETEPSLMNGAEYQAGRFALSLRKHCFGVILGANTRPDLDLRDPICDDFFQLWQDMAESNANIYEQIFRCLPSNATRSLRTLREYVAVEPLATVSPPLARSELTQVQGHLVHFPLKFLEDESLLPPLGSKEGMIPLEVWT
Sequence of Phospholipase D1 (Q13393 whole entry): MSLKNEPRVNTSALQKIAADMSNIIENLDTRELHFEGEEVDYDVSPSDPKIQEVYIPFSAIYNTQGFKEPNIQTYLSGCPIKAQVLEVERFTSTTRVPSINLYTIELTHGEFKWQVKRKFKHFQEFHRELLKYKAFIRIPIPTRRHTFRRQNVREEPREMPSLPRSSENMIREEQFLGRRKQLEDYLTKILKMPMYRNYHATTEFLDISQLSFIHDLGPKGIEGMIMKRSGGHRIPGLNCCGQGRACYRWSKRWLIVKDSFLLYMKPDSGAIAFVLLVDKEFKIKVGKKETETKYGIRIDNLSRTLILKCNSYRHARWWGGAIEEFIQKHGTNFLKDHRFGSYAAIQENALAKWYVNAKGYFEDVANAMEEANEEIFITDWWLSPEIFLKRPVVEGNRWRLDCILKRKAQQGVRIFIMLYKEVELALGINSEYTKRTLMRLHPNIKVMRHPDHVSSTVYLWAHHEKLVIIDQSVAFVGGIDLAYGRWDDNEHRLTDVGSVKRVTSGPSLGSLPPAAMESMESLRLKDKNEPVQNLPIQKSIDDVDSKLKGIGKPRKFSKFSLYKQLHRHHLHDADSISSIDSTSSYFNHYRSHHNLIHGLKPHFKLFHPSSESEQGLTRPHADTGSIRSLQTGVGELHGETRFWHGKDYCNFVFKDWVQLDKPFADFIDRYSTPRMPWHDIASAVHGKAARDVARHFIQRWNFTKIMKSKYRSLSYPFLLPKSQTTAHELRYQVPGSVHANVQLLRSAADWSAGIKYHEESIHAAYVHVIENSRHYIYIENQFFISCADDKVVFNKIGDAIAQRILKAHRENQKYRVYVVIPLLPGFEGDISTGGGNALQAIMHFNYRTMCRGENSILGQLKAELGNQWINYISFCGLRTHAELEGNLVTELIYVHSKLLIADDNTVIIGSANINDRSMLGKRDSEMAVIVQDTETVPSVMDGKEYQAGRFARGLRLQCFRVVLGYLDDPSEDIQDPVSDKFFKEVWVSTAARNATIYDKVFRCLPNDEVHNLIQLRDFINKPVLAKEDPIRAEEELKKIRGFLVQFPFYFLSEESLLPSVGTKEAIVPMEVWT
Sequence of DNA dC->dU-editing enzyme APOBEC-3A (P31941 whole entry): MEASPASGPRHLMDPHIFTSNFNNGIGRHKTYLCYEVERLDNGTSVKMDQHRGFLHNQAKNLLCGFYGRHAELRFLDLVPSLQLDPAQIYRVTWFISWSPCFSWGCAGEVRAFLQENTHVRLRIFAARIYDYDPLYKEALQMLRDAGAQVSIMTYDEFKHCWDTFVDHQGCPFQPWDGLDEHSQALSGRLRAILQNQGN
Sequence of Dual specificity protein kinase CLK1 (P49759 whole entry): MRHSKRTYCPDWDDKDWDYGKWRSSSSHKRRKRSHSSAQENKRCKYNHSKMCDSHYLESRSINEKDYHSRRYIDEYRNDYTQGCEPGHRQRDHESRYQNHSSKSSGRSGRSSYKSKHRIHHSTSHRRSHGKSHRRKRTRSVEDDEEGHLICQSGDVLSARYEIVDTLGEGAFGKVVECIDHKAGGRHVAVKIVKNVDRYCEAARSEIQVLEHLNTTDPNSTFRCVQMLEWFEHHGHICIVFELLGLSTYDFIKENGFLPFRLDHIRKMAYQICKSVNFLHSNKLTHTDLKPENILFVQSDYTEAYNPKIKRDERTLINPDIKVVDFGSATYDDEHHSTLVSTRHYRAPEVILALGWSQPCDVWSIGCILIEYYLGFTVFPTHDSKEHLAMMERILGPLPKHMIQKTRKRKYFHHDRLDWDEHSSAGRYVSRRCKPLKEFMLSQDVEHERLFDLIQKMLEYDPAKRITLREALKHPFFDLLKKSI
Sequence of Glycogen synthase kinase-3 beta (P49841 whole entry): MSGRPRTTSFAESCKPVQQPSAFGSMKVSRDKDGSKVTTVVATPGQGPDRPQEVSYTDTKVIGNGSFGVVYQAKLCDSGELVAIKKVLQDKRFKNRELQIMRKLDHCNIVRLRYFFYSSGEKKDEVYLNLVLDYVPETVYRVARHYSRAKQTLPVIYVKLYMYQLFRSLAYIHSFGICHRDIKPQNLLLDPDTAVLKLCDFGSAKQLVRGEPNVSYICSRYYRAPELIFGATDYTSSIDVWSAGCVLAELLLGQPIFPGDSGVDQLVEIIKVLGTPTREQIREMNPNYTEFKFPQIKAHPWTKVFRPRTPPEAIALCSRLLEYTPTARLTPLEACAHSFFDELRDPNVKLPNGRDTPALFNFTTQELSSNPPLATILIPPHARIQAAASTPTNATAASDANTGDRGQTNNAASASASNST
Sequence of CAAX prenyl protease 2 (Q9Y256 whole entry): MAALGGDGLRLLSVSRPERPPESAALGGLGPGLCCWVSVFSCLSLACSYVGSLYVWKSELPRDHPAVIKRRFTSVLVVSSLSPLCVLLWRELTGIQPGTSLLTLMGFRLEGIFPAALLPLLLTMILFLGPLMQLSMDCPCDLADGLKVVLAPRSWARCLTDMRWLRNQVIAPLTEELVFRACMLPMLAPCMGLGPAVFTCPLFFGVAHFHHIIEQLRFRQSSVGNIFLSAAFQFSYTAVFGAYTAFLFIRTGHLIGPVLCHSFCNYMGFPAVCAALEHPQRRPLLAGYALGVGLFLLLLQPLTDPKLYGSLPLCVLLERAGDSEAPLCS

CC(Oc1ccc2c3c(c(=O)oc2c1)CCCC3)C(=O)NC1CC(C)(C)NC(C)(C)C1 (stereo not drawn)
AC50 (CAAX prenyl protease 1): 2.88 µM (active) | AC50 (Trypsin): 9.81 µM (active) | AC50 (CAAX prenyl protease 2): 16.2 µM (active)

Fc1c(-c2ccc3ncnc(NCc4cccs4)c3c2)ccc2c1OCO2
AC50 [1]: 0.057 µM (active)

O=C(N/N=C/c1c[nH]c2ccccc12)c1[nH]c2ccc(Cl)cc2c1-c1ccccc1
IC50 [2]: > 99 µM (inactive) | IC50 [3]: > 99 µM (inactive) | IC50 (Caspase-3): > 99 µM (inactive) | IC50 [4]: > 99 µM (inactive)

CCOC(=O)c1nnn(-c2nonc2N)c1CSc1ccc(C)cc1
AC50 [5]: 8.32 µM (active) | AC50 [6]: 1.19 µM (active)

C=C(C)C(=O)Nc1cccc(C2=NOC3(C2)C[C@H](C(N)=O)N(C(=O)c2ccccc2)C3)c1 (stereo partly drawn)
IC50 [7]: > 100 µM (inactive) | EC50 [8]: 17.1 µM (active) | IC50 [9]: 3.85 µM (active) | IC50 [10]: 14.3 µM (active) | EC50 [11]: 12.5 µM (inactive)

C[C@H](CN1CCC2(CC1)C(=O)NCN2c1ccccc1)NC(=O)c1ccc(F)cc1
IC50 (Phospholipase D1): 0.413 µM (active) | IC50 (Phospholipase D2): 0.2 µM (active)

CC1CCN(c2oc(-c3ccccc3Cl)nc2C#N)CC1
AC50 (HeLa): 73 µM (active)
